Source: US11274083B2, “Substituted thiophenyl uracils, salts thereof and the use thereof as herbicidal agents” (Syngenta Crop Protection AG, priority 2017, dated 2022)

Assays:
Format in all cases: in vivo
[1] = tested on: Matricaria inodora; assay: Herbicidal action pre-emergence, greenhouse pot test
[2] = tested on: Abutilon theophrasti; assay: Herbicidal action post-emergence, greenhouse pot test
Summary of the method: (§1)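 Weeds were sown in sandy loam and grown in a greenhouse for 2 to 3 weeks, then sprayed at the one-leaf stage with WP or EC formulations plus 0.5% additive at 600 L/ha water, at 80 g/ha or lower. Efficacy was scored visually about 3 weeks later against untreated controls.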

[3] = tested on: Alopecurus myosuroides; assay: as above; conditions: application rate 80 g/ha, scored visually after about 3 weeks vs untreated controls
Summary of the method: as §1

[4] = tested on: Polygonum convolvulus; assay: as above
Summary of the method: as §1

[5] = tested on: Pharbitis purpurea; assay: as above
Summary of the method: as §1

[6] = tested on: Lolium rigidum; assay: as above; conditions: application rate 80 g/ha
Summary of the method: as §1

[7] = tested on: Matricaria inodora; assay: as above; conditions: application rate 80 g/ha
Summary of the method: as §1

[8] = tested on: Setaria viridis; assay: as above
Summary of the method: as §1

[9] = tested on: Amaranthus retroflexus; assay: as above
Summary of the method: as §1

[10] = tested on: Veronica persica; assay: as above
Summary of the method: as §1

[11] = tested on: Viola tricolor; assay: as above
Summary of the method: as §1

[12] = tested on: Stellaria media; assay: as above
Summary of the method: as §1

[13] = tested on: Avena fatua; assay: as above; conditions: application rate 80 g/ha
Summary of the method: as §1

[14] = tested on: Hordeum murinum; assay: as above
Summary of the method: as §1

[15] = tested on: Echinochloa crus-galli; assay: as above; conditions: application rate 80 g/ha
Summary of the method: as §1

[16] = tested on: Abutilon theophrasti; assay: Herbicidal action pre-emergence, greenhouse pot test
Summary of the method: (§2)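 Seeds were sown in pots and covered with soil, then compounds formulated as WP or EC were sprayed onto the soil surface as aqueous suspension or emulsion with 0.5% additive at 600 L/ha water, 320 g/ha or lower. After about 3 weeks in the greenhouse, efficacy was scored visually as % versus untreated controls.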

[17] = tested on: Alopecurus myosuroides; assay: as above; conditions: application rate 320 g/ha
Summary of the method: as §2

[18] = tested on: Polygonum convolvulus; assay: as above
Summary of the method: as §2

[19] = tested on: Pharbitis purpurea; assay: as above
Summary of the method: as §2

[20] = tested on: Lolium rigidum; assay: as above; conditions: application rate 320 g/ha
Summary of the method: as §2

[21] = tested on: Setaria viridis; assay: as above
Summary of the method: as §2

[22] = tested on: Amaranthus retroflexus; assay: as above
Summary of the method: as §2

[23] = tested on: Veronica persica; assay: as above
Summary of the method: as §2

[24] = tested on: Viola tricolor; assay: as above
Summary of the method: as §2

[25] = tested on: Stellaria media; assay: as above
Summary of the method: as §2

[26] = tested on: Avena fatua; assay: as above; conditions: application rate 320 g/ha
Summary of the method: as §2

[27] = tested on: Hordeum murinum; assay: as above; conditions: application rate 320 g/ha
Summary of the method: as §2

[28] = tested on: Echinochloa crus-galli; assay: as above; conditions: application rate 320 g/ha
Summary of the method: as §2

[29] = tested on: Triticum aestivum; assay: Crop compatibility post-emergence, greenhouse pot test; conditions: application rate 20 g/ha
Summary of the method: (§3)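 Pot-grown plants in sandy loam, greenhouse, sprayed post-emergence at the one-leaf stage (2–3 weeks after sowing) with WP or EC formulations as aqueous spray plus 0.5% additive at 600 L/ha. Damage scored visually after about 3 weeks versus untreated controls, in % (0% = like control, 100% = dead).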

[30] = tested on: Glycine max; assay: as above; conditions: application rate 20 g/ha
Summary of the method: as §3

[31] = tested on: Oryza sativa; assay: as above
Summary of the method: as §3

[32] = tested on: Digitaria sanguinalis; assay: Herbicidal action post-emergence, greenhouse pot test; conditions: application rate 80 g/ha

COC(=O)CCOC(=O)C(C)Sc1cc(-n2c(=O)cc(C(F)(F)F)n(C)c2=O)c(F)cc1Cl (stereo not shown) [I.1-2]
80%: Avena fatua (Efficacy in %) [13]
90%: Lolium rigidum (Efficacy in %) [6] | Alopecurus myosuroides (Efficacy in %) [17] | Avena fatua (Efficacy in %) [26] | Hordeum murinum (Efficacy in %) [27]
100%: Matricaria inodora (Efficacy in %) ([1]; application rate 80 g/ha) | Abutilon theophrasti (Efficacy in %) ([2]; application rate 80 g/ha) | Alopecurus myosuroides (Efficacy in %) [3] | Polygonum convolvulus (Efficacy in %) ([4]; application rate 20 g/ha) | Pharbitis purpurea (Efficacy in %) ([5]; application rate 20 g/ha) | Matricaria inodora (Efficacy in %) [7] | Setaria viridis (Efficacy in %) ([8]; application rate 80 g/ha) | Amaranthus retroflexus (Efficacy in %) ([9]; application rate 80 g/ha) | Veronica persica (Efficacy in %) ([10]; application rate 20 g/ha) | Viola tricolor (Efficacy in %) ([11]; application rate 80 g/ha) | Stellaria media (Efficacy in %) ([12]; application rate 20 g/ha) | Hordeum murinum (Efficacy in %) ([14]; application rate 20 g/ha) | Echinochloa crus-galli (Efficacy in %) [15] | Abutilon theophrasti (Efficacy in %) ([16]; application rate 80 g/ha) | Polygonum convolvulus (Efficacy in %) ([18]; application rate 80 g/ha) | Pharbitis purpurea (Efficacy in %) ([19]; application rate 80 g/ha) | Lolium rigidum (Efficacy in %) [20] | Setaria viridis (Efficacy in %) ([21]; application rate 80 g/ha) | Amaranthus retroflexus (Efficacy in %) ([22]; application rate 80 g/ha) | Veronica persica (Efficacy in %) ([23]; application rate 80 g/ha) | Viola tricolor (Efficacy in %) ([24]; application rate 80 g/ha) | Stellaria media (Efficacy in %) ([25]; application rate 80 g/ha) | Echinochloa crus-galli (Efficacy in %) [28]

CCOC(=O)CCOC(=O)C(CC(C)C)Sc1cc(-n2c(=O)c(C)c(C(F)(F)F)n(C)c2=O)c(F)cc1Cl (stereo not shown) [I.14-3]
100%: Abutilon theophrasti (Efficacy in %) ([2]; application rate 20 g/ha) | Polygonum convolvulus (Efficacy in %) ([4]; application rate 20 g/ha) | Pharbitis purpurea (Efficacy in %) ([5]; application rate 20 g/ha) | Amaranthus retroflexus (Efficacy in %) ([9]; application rate 20 g/ha) | Veronica persica (Efficacy in %) ([10]; application rate 20 g/ha) | Viola tricolor (Efficacy in %) ([11]; application rate 20 g/ha)
20%: Triticum aestivum (Efficacy in %) [29] | Glycine max (Efficacy in %) [30]
90%: Setaria viridis (Efficacy in %) ([8]; application rate 20 g/ha)
0%: Oryza sativa (Efficacy in %) ([31]; application rate 20 g/ha)

CCCOC(=O)CCOC(=O)C(C)Sc1cc(-n2c(=O)cc(C(F)(F)F)n(C)c2=O)c(F)cc1Cl (stereo not shown) [I.1-8]
80%: Avena fatua (Efficacy in %) [13] | Alopecurus myosuroides (Efficacy in %) [17]
100%: Digitaria sanguinalis (Efficacy in %) [32] | Matricaria inodora (Efficacy in %) ([1]; application rate 320 g/ha) | Abutilon theophrasti (Efficacy in %) ([2]; application rate 80 g/ha) | Polygonum convolvulus (Efficacy in %) ([4]; application rate 80 g/ha) | Pharbitis purpurea (Efficacy in %) ([5]; application rate 80 g/ha) | Matricaria inodora (Efficacy in %) [7] | Setaria viridis (Efficacy in %) ([8]; application rate 80 g/ha) | Amaranthus retroflexus (Efficacy in %) ([9]; application rate 80 g/ha) | Veronica persica (Efficacy in %) ([10]; application rate 80 g/ha) | Viola tricolor (Efficacy in %) ([11]; application rate 80 g/ha) | Stellaria media (Efficacy in %) ([12]; application rate 80 g/ha) | Echinochloa crus-galli (Efficacy in %) [15] | Abutilon theophrasti (Efficacy in %) ([16]; application rate 320 g/ha) | Polygonum convolvulus (Efficacy in %) ([18]; application rate 320 g/ha) | Pharbitis purpurea (Efficacy in %) ([19]; application rate 320 g/ha) | Setaria viridis (Efficacy in %) ([21]; application rate 320 g/ha) | Amaranthus retroflexus (Efficacy in %) ([22]; application rate 320 g/ha) | Veronica persica (Efficacy in %) ([23]; application rate 320 g/ha) | Viola tricolor (Efficacy in %) ([24]; application rate 320 g/ha) | Stellaria media (Efficacy in %) ([25]; application rate 320 g/ha) | Echinochloa crus-galli (Efficacy in %) [28]
90%: Alopecurus myosuroides (Efficacy in %) [3] | Lolium rigidum (Efficacy in %) [6] | Hordeum murinum (Efficacy in %) ([14]; application rate 80 g/ha) | Lolium rigidum (Efficacy in %) [20]
20%: Triticum aestivum (Efficacy in %) [29] | Oryza sativa (Efficacy in %) ([31]; application rate 5 g/ha)
